Data reported in PMC7822874, “Chemoprotective antimalarials identified through quantitative high-throughput screening of Plasmodium blood and liver stage parasites” (Scientific Reports, 2021).
Where two headings read alike, the source gives them in different places.

Tests used:
in vitro = conditions: human, HepG2-A16-CD81EGFP cells, uninfected
[1] = system: Plasmodium falciparum Dd2 asexual blood stage parasites; test: microbe, parasite or virus in culture; design: species or system Plasmodium falciparum Dd2 in human erythrocytes; single determination (one 11-point concentration-response curve); conditions: Plasmodium falciparum, DD2, Erythrocyte, 72 h; read-out: AC50
HepG2-A16-CD81EGFP cells = conditions: average of 2 wells, repeat 2; for HepG2 viability signal, 1 uM, repeat 2: nominal 1 uM (10 mM stock), […] for 15 mM, 1.2 uM for 12 mM, 2 uM for 20 mM stock; for HepG2 viability signal, 3 uM, repeat 2: nominal 3 uM (10 mM stock), 4.5 uM for 15 mM, 3.6 uM for 12 mM, 6 uM for 20 mM stock
[2] = system: P. berghei-ANKA-GFP-LucCON liver stage parasites in HepG2-A16-CD81EGFP cells; test: P. berghei liver stage Pb-Luc assay, Method 1 (UCSD, 1536-well); format: cell-based, Plasmodium berghei; conditions: Plasmodium berghei, 48 h, average of 2 wells, 1536-well plate; for activity at 1 µM: nominal 1 uM (10 mM stock), […] for 15 mM, 1.2 uM for 12 mM, 2 uM for 20 mM stock; for activity at 3 µM: nominal 3 uM (10 mM stock), 4.5 uM for 15 mM, 3.6 uM for 12 mM, 6 uM for 20 mM stock; as to all read-outs here: reference of the scale not given here
[3] = repeat 1, read-out: Pb-Luc signal, 1 uM, repeat 1
[4] = repeat 2, read-out: Pb-Luc signal, 1 uM, repeat 2
[5] = repeat 3, read-out: Pb-Luc signal, 1 uM, repeat 3
[6] = repeat 1, read-out: Pb-Luc signal, 3 uM, repeat 1
[7] = repeat 2, read-out: Pb-Luc signal, 3 uM, repeat 2
[8] = repeat 3, read-out: Pb-Luc signal, 3 uM, repeat 3

Compound | viability at 48 h, 1 µM (in vitro) [%] | viability at 48 h, 3 µM (in vitro) [%] | AC50 [1] [nM] | HepG2 viability signal, 1 uM, repeat 2 (HepG2-A16-CD81EGFP cells) [%] | HepG2 viability signal, 3 uM, repeat 2 (HepG2-A16-CD81EGFP cells) [%] | activity at 1 µM [2, 3] [%] | activity at 1 µM [2, 4] [%] | activity at 1 µM [2, 5] [%] | activity at 3 µM [2, 6] [%] | activity at 3 µM [2, 7] [%] | activity at 3 µM [2, 8] [%]
Cc1ccc(CN2COc3cc(C)c4c(oc(=O)c5ccccc54)c3C2)cc1 [NCGC00116336-01] | 101 | 105 | 1330 | 104.57 | 104.67 | 94.2 | 106 | 96.8 | 71.6 | 78.2 | 92.4
CC(C)c1ccccc1Oc1c(C(F)(F)F)oc2c(CN3CCN(C)CC3)c(O)ccc2c1=O [NCGC00100597-01] | 101 | 102 | 668 | 96.39 | 99.40 | 104 | 108 | 80.4 | 67.9 | 95.1 | 69.5
CCOC(=O)c1c(S(=O)(=O)N2CCCC(C(=O)N3CCN(c4cccc(C)c4C)CC3)C2)c(C)n(C)c1C (stereo not drawn) [NCGC00138143-01] | 96.4 | 99.6 | 1060 | 101.67 | 102.57 | 90.2 | 90.3 | 120 | 83.2 | 98.3 | 108
COc1ccc(-c2cc(=O)oc3c4c(ccc23)OCN(Cc2ccccc2)C4)cc1 [NCGC00116344-01] | 98.2 | 101 | 2990 | 95.59 | 97.26 | 71.5 | 126 | 103 | 62.6 | 101 | 76.9
CCc1cccc(-n2c(=O)c3cccnc3n2CC(=O)NCc2ccccc2)c1 [NCGC00128448-01] | 105 | 100 | 1680 | 105.26 | 100.08 | 105 | 86.8 | 118 | 150 | 109 | 92.9
CC1=C(C(=O)Nc2ccc(C)cc2C)C(c2ccc(Br)cc2)n2ncc(C(=O)Nc3cccc(C)c3)c2N1 (stereo not drawn) [NCGC00126300-01] | 102 | 94.6 | 3350 | 95.30 | 90.59 | 94.7 | 120 | 115 | 75.3 | 87.7 | 102
CCCOC(=O)c1c(NC(=O)C(C)Sc2nc(-c3ccccc3)cc(C(F)(F)F)n2)sc(C(=O)N(C)C)c1C (stereo not drawn) [NCGC00101274-01] | 98.8 | 100 | 1680 | 104.19 | 103.13 | 94.7 | 104 | 101 | 61.7 | 98.3 | 113
COc1ccc(-c2noc(-c3cccn3CC(=O)Nc3ccccc3)n2)cc1F [NCGC00445500-01] | 103 | 105 | 2370 | 98.82 | 102.85 | 155 | 167 | 187 | 187 | 192 | 169
COc1ccccc1NC(=O)N1CCOc2ccc(CN3CCc4ccccc4C3)cc2C1 [NCGC00471234-01] | 98 | 96.8 | 2370 | 96.28 | 96.50 | 118 | 82 | 108 | 110 | 87.1 | 47
CC1=C[C@@H](CN(C)C)[C@H](C(C)C)C[C@H]1Cc1nc2ncc(Cl)cc2[nH]1 [NCGC00421128-01] | 106 | 108 | 21700 | 100.56 | 100.80 | 85.6 | 76 | 112 | 59.7 | 57.2 | 82.1
CCOC(=O)c1ccc2c(c1)[C@@H]1C=CC[C@@H]1[C@H](c1cccc(OC)c1OC)N2 [NCGC00100279-01] | 97.9 | 105 | 2660 | 100.32 | 102.96 | 74.5 | 94.6 | 122 | 60.1 | 74.5 | 64.8
CCOC(=O)C1(Cc2ccccc2Cl)CCNCC1 [NCGC00430911-01] | 94.6 | 94.7 | 2660 | 100.98 | 101.65 | 78.1 | 97.3 | 89.2 | 74.5 | 106 | 93.5
Cc1cnc(CC2CCN([S+](=O)([O-])c3ccccc3)CC2)n1Cc1ccccc1 [NCGC00469740-01] | 94.7 | 96.4 | 5310 | 97.06 | 98.63 | 97.2 | 133 | 138 | 81.1 | 76.7 | 90.7
CC1=C(C(=O)Nc2ccc(C)cc2C)C(c2ccc([N+](=O)[O-])cc2)n2ncc(C(=O)Nc3ccc(F)cc3)c2N1 (stereo not drawn) [NCGC00126356-01] | 98.5 | 94.6 | 2990 | 98.93 | 92.77 | 110 | 107 | 122 | 80.3 | 94 | 83.4
Oc1ccccc1-c1cc(-c2cccnc2)c2cncn2c1 [NCGC00412170-01] | 98.3 | 101 | 1720 | 95.01 | 100.05 | 103 | 117 | 108 | 100 | 122 | 76.4
CCN1CCN(c2cc(C)c3cc(NC(=O)c4cc(OC)c(OC)c(OC)c4)ccc3n2)CC1 [NCGC00137500-01] | 100 | 103 | 1330 | 103.37 | 106.17 | 125 | 156 | 138 | 126 | 103 | 114
COc1cc(C(=O)NC2CCCc3c2[nH]c2c(Cl)cccc32)cc(OC)c1OC (stereo not drawn) [NCGC00424034-01] | 101 | 98.2 | 2110 | 98.86 | 98.35 | 122 | 161 | 165 | 157 | 165 | 156
CCN1CCN(Cc2c(O)ccc3c(=O)c(Oc4ccccc4C(C)C)c(C(F)(F)F)oc23)CC1 [NCGC00100599-01] | 97.5 | 99.2 | 596 | 96.13 | 100.51 | 78.6 | 113 | 135 | 70 | 89.4 | 121
